Where a name gives a salt, the structure may show the parent alone.
Legend:
[1] = tested on: Diet Induced Obese (DIO) C57BL/6 mice; experiment: 10 day DIO mouse model (body weight, food intake, hematology, blood chemistry); format: in vivo; conditions: 240 h; DIO mouse, 0.3 mpk sc, once a day for 10 days; read-out: DIO Mouse 10-day weight loss vs vehicle
Source text: The objective of this study design was to investigate the efficacy of disclosed compounds in a 10 day DIO mouse model. Effects on body weight, food intake, hematology and blood chemistry were the primary readouts of this study design. […] Mice were fed Research Diets D12492 (60% Kcal fat, 20% Kcal carbohydrate and 20% protein) and provided water ad libitum. DIO mice were received and housed in the facility for approximately two weeks prior to the start of test article administration. On Day −4 or −3, mice were randomized into study groups based on body weight and body weights were continued to be recorded daily for the duration of the study. Daily food intake was assessed starting on Study Day −2 by weighing of the food with hopper together to avoid loss of food in transfer.
(§1) Compounds were formulated into a 100% DMSO stock (at 9 mg/mL) prior to the start, and further diluted into the target working concentration using the vehicle of 10% DMSO in water. Prior to test article administration, starting on Day −3 a dosing acclimation occured with all animals receiving a subcutaneous injection of vehicle (10% DMSO) only for 3 days. Starting on Day 1, test compounds or vehicle were administered based on individual body weight, subcutaneously, once a day for 10 days. All mice were sacrificed on Day 11, 24 hours following the final dosing on Day 10. After sacrifice, whole blood was collected and analyzed for hematology and blood chemistry parameters.
(§2) Compounds were tested vs. vehicle at various doses (1.0, 0.5, 0.3, 0.1, 0.03 mpk sc (mg per kg animal weight delivered subcutaneously), and the results are shown in Table 2 below.

[2] = tested on: Male Sprague Dawley rats on high fat diet; experiment: 11 day rat DIO model (body weight, food intake, hematology, blood chemistries); format: in vivo; conditions: 264 h, DIO rat, once a day for 11 days, read-out: DIO Rat 11-day weight loss vs vehicle; for inhibition in vivo at 0.3 mg/kg: 0.3 mpk sc
Source text: The objective of this study design is to investigate the efficacy of disclosed compounds in an 11 day rat DIO model used to screen compounds for pharmacologic efficacy on endpoints related to obesity and metabolism. Effects on body weight, food intake, hematology and blood chemistries were the primary readouts of this study design. […] Rats were fed Research Diets D12451 (45% High Fat) and provided water ad libitum. Rats were received and housed in the facility for at least two or three weeks prior to start of test article administration. On Day −4 or −3, rats were randomized into study groups based on body weight and body weights were continued to be recorded daily for the duration of the study. Daily food intake was assessed starting on Study Day −2 by weighing the hopper including the food to avoid loss of food in transfer.
as §1, with “for 11” for “for 10”, “All animals” for “All mice”, “11, approximately 2” for “11, 24”, “Day 11.” for “Day 10.”
as §2

Compound	inhibition in vivo at 0.3 mg/kg [1]	inhibition in vivo at 0.3 mg/kg [2]	inhibition in vivo at 1 mg/kg ([2]; 1.0 mpk sc)
CNC(=O)OCC1CN(C(=O)O[C@@H]2CC[C@]3(CO3)[C@@H]([C@@]3(C)O[C@@H]3CC=C(C)C)[C@@H]2OC)C1 [Example 69, (3R,4S,5S,6R)-5-methoxy-4-((2R,3R)-2-methyl-3-(3-methylbut-2-enyl)oxiran-2-yl)-1-oxaspiro[2.5]octan-6-yl 3-((methylcarbamoyloxy)methyl)azetidine-1-carboxylate]	12.7%	2.1%	
CO[C@@H]1[C@H](OC(=O)N2CC(OC(=O)N3CCN(CC(F)F)CC3)C2)CC[C@]2(CO2)[C@H]1[C@@]1(C)O[C@@H]1CC=C(C)C [Example 80, 1-(((3R,4S,5S,6R)-5-methoxy-4-((2R,3R)-2-methyl-3-(3-methylbut-2-enyl)oxiran-2-yl)-1-oxaspiro[2.5]octan-6-yloxy)carbonyl)azetidin-3-yl 4-(2,2-difluoroethyl)piperazine-1-carboxylate]	16.5%	7.3%	
CO[C@@H]1[C@H](OC(=O)N2CC(OC(=O)N3CCOCC3)C2)CC[C@]2(CO2)[C@H]1[C@@]1(C)O[C@@H]1CC=C(C)C [Example 71, 1-(((3R,4S,5S,6R)-5-methoxy-4-((2R,3R)-2-methyl-3-(3-methylbut-2-enyl)oxiran-2-yl)-1-oxaspiro[2.5]octan-6-yloxy)carbonyl)azetidin-3-yl morpholine-4-carboxylate formate]	8.9%	10.3%	10.3%
CO[C@@H]1[C@H](OC(=O)N2CC(CCN3CC[C@H](F)C3)C2)CC[C@]2(CO2)[C@H]1[C@@]1(C)O[C@@H]1CC=C(C)C [Example 28, (3R,4S,5S,6R)-5-methoxy-4-((2R,3R)-2-methyl-3-(3-methylbut-2-enyl)oxiran-2-yl)-1-oxaspiro[2.5]octan-6-yl 3-(2-((S)-3-fluoropyrrolidin-1-yl)ethyl)azetidine-1-carboxylate]	12.7%		
CO[C@@H]1[C@H](OC(=O)N2CC(=CCN3CCN(CC(F)F)CC3)C2)CC[C@]2(CO2)[C@H]1[C@@]1(C)O[C@@H]1CC=C(C)C [Example 97, (3R,4S,5S,6R)-5-methoxy-4-((2R,3R)-2-methyl-3-(3-methylbut-2-enyl)oxiran-2-yl)-1-oxaspiro[2.5]octan-6-yl 3-(2-(4-(2,2-difluoroethyl)piperazin-1-yl)ethylidene)azetidine-1-carboxylate]	21.3%		
CO[C@@H]1[C@H](OC(=O)N2CC(CCN3CC(C(=O)N(C)C)C3)C2)CC[C@]2(CO2)[C@H]1[C@@]1(C)O[C@@H]1CC=C(C)C [Example 19, (3R,4S,5S,6R)-5-methoxy-4-((2R,3R)-2-methyl-3-(3-methylbut-2-enyl)oxiran-2-yl)-1-oxaspiro[2.5]octan-6-yl 3-(2-(3-(dimethylcarbamoyl)azetidin-1-yl)ethyl)azetidine-1-carboxylate]	6.7%		
CO[C@@H]1[C@H](OC(=O)N2CC(CCN3CCNC(=O)C3)C2)CC[C@]2(CO2)[C@H]1[C@@]1(C)O[C@@H]1CC=C(C)C [Example 12, (3R,4S,5S,6R)-5-methoxy-4-((2R,3R)-2-methyl-3-(3-methylbut-2-enyl)oxiran-2-yl)-1-oxaspiro[2.5]octan-6-yl 3-(2-(3-oxopiperazin-1-yl)ethyl)azetidine-1-carboxylate]	1.1%		
CO[C@@H]1[C@H](OC(=O)N2CC(CCC(=O)NCCN3CCOCC3)C2)CC[C@]2(CO2)[C@H]1[C@@]1(C)O[C@@H]1CC=C(C)C [Example 67, (3R,4S,5S,6R)-5-methoxy-4-((2R,3R)-2-methyl-3-(3-methylbut-2-enyl)oxiran-2-yl)-1-oxaspiro[2.5]octan-6-yl 3-(3-(2-morpholinoethylamino)-3-oxopropyl)azetidine-1-carboxylate]	2.8%		
CO[C@@H]1[C@H](OC(=O)N2CC(OC(=O)NCC(C)(C)O)C2)CC[C@]2(CO2)[C@H]1[C@@]1(C)O[C@@H]1CC=C(C)C [Example 82, (3R,4S,5S,6R)-5-methoxy-4-((2R,3R)-2-methyl-3-(3-methylbut-2-enyl)oxiran-2-yl)-1-oxaspiro[2.5]octan-6-yl 3-(2-hydroxy-2-methylpropylcarbamoyloxy)azetidine-1-carboxylate]	-0.7%		
CO[C@@H]1[C@H](OC(=O)N2CC(CCN3CCN(C)C(=O)C3)C2)CC[C@]2(CO2)[C@H]1[C@@]1(C)O[C@@H]1CC=C(C)C [Example 11, (3R,4S,5S,6R)-5-methoxy-4-((2R,3R)-2-methyl-3-(3-methylbut-2-enyl)oxiran-2-yl)-1-oxaspiro[2.5]octan-6-yl 3-(2-(4-methyl-3-oxopiperazin-1-yl)ethyl)azetidine-1-carboxylate formate]	2%		
CO[C@@H]1[C@H](OC(=O)N2CC(CCN3CCC(F)(F)CC3)C2)CC[C@]2(CO2)[C@H]1[C@@]1(C)O[C@@H]1CC=C(C)C [Example 13, (3R,4S,5S,6R)-5-methoxy-4-((2R,3R)-2-methyl-3-(3-methylbut-2-enyl)oxiran-2-yl)-1-oxaspiro[2.5]octan-6-yl 3-(2-(4,4-difluoropiperidin-1-yl)ethyl)azetidine-1-carboxylate]	18.2%		
CO[C@@H]1[C@H](OC(=O)N2CC(CCN3CC[C@@H](O)C3)C2)CC[C@]2(CO2)[C@H]1[C@@]1(C)O[C@@H]1CC=C(C)C [Example 47, (3R,4S,5S,6R)-5-methoxy-4-((2R,3R)-2-methyl-3-(3-methylbut-2-enyl)oxiran-2-yl)-1-oxaspiro[2.5]octan-6-yl 3-(2-((R)-3-hydroxypyrrolidin-1-yl)ethyl)azetidine-1-carboxylate]	5.6%		
CO[C@@H]1CCN(CCC2CN(C(=O)O[C@@H]3CC[C@]4(CO4)[C@@H]([C@@]4(C)O[C@@H]4CC=C(C)C)[C@@H]3OC)C2)C1 [Example 26, (3R,4S,5S,6R)-5-methoxy-4-((2R,3R)-2-methyl-3-(3-methylbut-2-enyl)oxiran-2-yl)-1-oxaspiro[2.5]octan-6-yl 3-(2-((R)-3-methoxypyrrolidin-1-yl)ethyl)azetidine-1-carboxylate]	4.1%		
CO[C@@H]1[C@H](OC(=O)N2CC(OC(=O)N3CCS(=O)(=O)CC3)C2)CC[C@]2(CO2)[C@H]1[C@@]1(C)O[C@@H]1CC=C(C)C [Example 79, 1-(((3R,4S,5S,6R)-5-methoxy-4-((2R,3R)-2-methyl-3-(3-methylbut-2-enyl)oxiran-2-yl)-1-oxaspiro[2.5]octan-6-yloxy)carbonyl)azetidin-3-yl thiomorpholine 2,2-dioxide-4-carboxylate formate]	0.1%		
CCN(CC)CC[C@H]1CCCN1C(=O)O[C@@H]1CC[C@]2(CO2)[C@@H]([C@@]2(C)O[C@@H]2CC=C(C)C)[C@@H]1OC [Example 50, (R)-((3R,4S,5S,6R)-5-methoxy-4-((2R,3R)-2-methyl-3-(3-methylbut-2-enyl)oxiran-2-yl)-1-oxaspiro[2.5]octan-6-yl) 2-(2-(diethylamino)ethyl)pyrrolidine-1-carboxylate formate]	2.6%		
CO[C@@H]1[C@H](OC(=O)N2CC(CCN3CCCC3)C2)CC[C@]2(CO2)[C@H]1[C@@]1(C)O[C@@H]1CC=C(C)C [Example 3, (3R,4S,5S,6R)-5-methoxy-4-((2R,3R)-2-methyl-3-(3-methylbut-2-enyl)oxiran-2-yl)-1-oxaspiro[2.5]octan-6-yl 3-(2-(pyrrolidin-1-yl)ethyl)azetidine-1-carboxylate formate]	5.9%		

From US9682965B2, “Fumagillol heterocyclic compounds and methods of making and using same” (Zafgen, Inc., priority 2015, dated 2017)
